# Reference: paper PMC11148078, “Potent activity of polymyxin B is associated with long-lived super-stoichiometric accumulation mediated by weak-affinity binding to lipid A” (Nature Communications, 2024)
# Entries after “also recorded” stand apart in the source; their conditions may differ. Bridge positions count the residues as written; N and C are the ends. Square brackets hold non-standard residues; d marks the D form. Peptide text beside a SMILES is read from it. * marks the point of attachment. X1 = CC[C@H](C)CCCCC(=O)*; Dab = NCC[C@H](N)C(=O)O
# Legend:
# [1] = target: resistant-OMVs; assay: SPR steady-state affinity of reversible binding, resistant-OMVs; set-up: species or system E. coli; conditions: no pre-saturation; n=4 (polymyxin B), n=3 (PMBN), (SD); read-out: Apparent KD
# Description: An apparent-KD was measured for the reversible saw-tooth binding profile where polymyxin B was titrated over an OMV surface pre-saturated with the stable binding component (Supplementary Information Fig. S11B). […] No pre-saturation was necessary when using resistant-OMVs or PMBN as these lack the stable component (Fig. 2B, D–F).
# Binding and kinetic analysis of SPR-OMV assays
# To determine the apparent- KD of the reversible binding event of polymyxin B, single-cycle kinetics were performed as described in Materials and Methods. After OMVs were loaded, 5 µM polymyxin B was injected for 360 sec ([…] flow rate) followed by 120 sec dissociations to saturate the stable-binding population prior to the sample injections. The base-to-peak value of each trace was determined from double-referenced traces (reference 1: - OMVs/ + compound channel; reference 2: + OMVs/ - compound) exported from the Biacore S200 evaluation software into PRISM 9 software. The change in RU with each pulse was plotted over the concentration and the KD determined by fitting a non-linear regression, one-site total function with background parameter set to 0 (GraphPad Prism version 9.3.1 for Mac, GraphPad Software, San Diego, California USA, www.graphpad.com). […]
# [2] = tested on: wt-OMVs; assay: TEM / cryo-EM of treated OMVs; set-up: species or system E. coli; conditions: ~0.5:1 compound to LPS
# Description: OMVs were incubated in OMV buffer (as above) plus 0.0005% tween-80 and then polymyxin B, PMBN, or an equal volume of OMV buffer, added for a final ratio of 0.5:1 polymyxin B (or PMBN) to LPS for either 1 min or 40 min. The amount of LPS in the OMV preparations was determined using fluorescently labeled LPS as described. LPS was quantified by addition of 20 µL of 4 µM dansyl-polymyxin B to 20 µL of sample or dilution series of LPS in PBS with 0.004% tween-80 and 5 mM EDTA in a while polypropylene 384-well plate (Thermo-Fisher). The plate was incubated for 30 min at room-temperature before reading the fluorescence intensity on a plate reader (Ex 340 nm, Em 495 nm, cutoff 475 nm). Concentration was interpolated using a standard curve. Log-phase bacteria were diluted to OD600 of 0.25 in 3 mL of LB supplemented with tween-80 before addition of 1 µL of 1 µM polymyxin B or PMBN and incubated statically at 37 °C. Samples were fixed at times indicated by addition of equal volume of 2x Karnovsky fix and stored at 4 °C. The suspensions were then adsorbed to the surface of formvar and carbon-coated standard TEM grids (75 mesh) for 15 min at room temperature, quickly rinsed in ultrapure water. OMVs were stained twice for 60 s with 2% aqueous uranyl acetate and bacteria were stained with uranyl-less stain (ready-to-use solution from Electron Microscopy Sciences) twice for 60 s. Excess staining solution was blotted off and grids were air dried. Imaging was with JEOL JEM-1400 transmission electron microscope (TEM) operated at 80 kV using magnification form 5000x to 100,000x. At least 20 images were taken for each sample. […]
# California USA, www.graphpad.com). […]
# Wild-type and polymyxin-resistant OMVs (pmrAG53E) were incubated with polymyxin B, PMBN, or an equal volume of buffer, as described for TEM imaging at a final ratio of 0.5:1 polymyxin B (or PMBN) to LPS for 20 min. To prepare samples for cryo-EM, 4 μL of each condition was applied to holey gold grids (UltrAuFoil 25 nm R 1.2/1.3; Quantifoil) which had been glow discharged for 20 sec with a Solarus plasma cleaner (Gatan). […]
Structure (SMILES),Kd [1] [nM],effect on OMV morphology (words) [2],effect on OMV morphology (words) ([2]; listed as polymyxin B)
CC(C)C[C@@H]1NC(=O)[C@@H](Cc2ccccc2)NC(=O)[C@H](CCN)NC(=O)[C@@H](NC(=O)[C@H](CCN)NC(=O)[C@@H](N)[C@@H](C)O)CCNC(=O)[C@H]([C@@H](C)O)NC(=O)[C@H](CCN)NC(=O)[C@H](CCN)NC1=O [PMBN] (H-T[Dab][Dab][Dab][dF]L[Dab][Dab]T; lactam 3-C),371,less or no OMV clumping was observed,
CC[C@H](C)CCCCC(=O)N[C@@H](CCN)C(=O)N[C@H](C(=O)N[C@@H](CCN)C(=O)N[C@H]1CCNC(=O)[C@H]([C@@H](C)O)NC(=O)[C@H](CCN)NC(=O)[C@H](CCN)NC(=O)[C@H](CC(C)C)NC(=O)[C@@H](Cc2ccccc2)NC(=O)[C@H](CCN)NC1=O)[C@@H](C)O [Polymyxin B] (X1-[Dab]T[Dab][Dab][Dab][dF]L[Dab][Dab]T; lactam 4-C (inferred); N-terminus assumed),273,led to clumping,exhibited vesiculation and tubules; also recorded: OMVs are perturbed by polymyxin B
